According to US11713338B2, “Cyclic peptides multimers targeting α-4-β-7 integrin” (priority 2016, dated 2023):
pIC50: −log10 of the molar value.

The compounds below were run against T1, integrin α4β7 (RPMI8866 human cells adhering to MAdCAM-1) (Homo sapiens, UniProt P13612+P26010) (assay: Integrin α4β7-MAdCAM cell adhesion assay (RPMI8866 cells)). Conditions: RPMI8866 cells adhering to MAdCAM; read-out: RPMI8866 Adhesion α4β7/MAdCAM IC50.
T1 construct: RMP18866 cells, which express integrin α4β7; host or cells: RPMI8866
T1 sequence (P13612 34-1032): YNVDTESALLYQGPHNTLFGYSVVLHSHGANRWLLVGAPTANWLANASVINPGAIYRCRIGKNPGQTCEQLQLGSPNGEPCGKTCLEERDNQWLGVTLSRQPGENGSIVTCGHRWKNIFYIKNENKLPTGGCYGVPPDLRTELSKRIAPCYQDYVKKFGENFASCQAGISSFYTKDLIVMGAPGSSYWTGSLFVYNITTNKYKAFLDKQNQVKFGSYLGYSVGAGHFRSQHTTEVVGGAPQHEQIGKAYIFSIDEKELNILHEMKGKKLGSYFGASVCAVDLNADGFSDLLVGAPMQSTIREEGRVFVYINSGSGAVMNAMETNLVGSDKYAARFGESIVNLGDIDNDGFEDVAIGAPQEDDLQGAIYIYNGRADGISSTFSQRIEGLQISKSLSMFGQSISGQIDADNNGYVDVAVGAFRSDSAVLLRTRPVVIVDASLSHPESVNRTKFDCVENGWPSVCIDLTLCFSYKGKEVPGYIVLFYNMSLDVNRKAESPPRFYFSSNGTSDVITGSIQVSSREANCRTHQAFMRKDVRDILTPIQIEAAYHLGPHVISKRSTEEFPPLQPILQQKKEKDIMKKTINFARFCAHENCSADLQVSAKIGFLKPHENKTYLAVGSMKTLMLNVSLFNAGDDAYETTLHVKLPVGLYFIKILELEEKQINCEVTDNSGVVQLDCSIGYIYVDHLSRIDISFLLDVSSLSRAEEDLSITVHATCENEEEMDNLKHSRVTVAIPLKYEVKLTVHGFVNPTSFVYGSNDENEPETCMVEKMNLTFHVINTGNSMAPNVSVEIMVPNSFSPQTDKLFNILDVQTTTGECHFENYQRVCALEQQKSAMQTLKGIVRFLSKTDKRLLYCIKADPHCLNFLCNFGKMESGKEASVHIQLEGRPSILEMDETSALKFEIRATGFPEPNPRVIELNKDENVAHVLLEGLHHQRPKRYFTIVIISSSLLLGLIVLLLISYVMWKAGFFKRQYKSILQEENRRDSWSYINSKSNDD
T1 sequence (P26010 20-798): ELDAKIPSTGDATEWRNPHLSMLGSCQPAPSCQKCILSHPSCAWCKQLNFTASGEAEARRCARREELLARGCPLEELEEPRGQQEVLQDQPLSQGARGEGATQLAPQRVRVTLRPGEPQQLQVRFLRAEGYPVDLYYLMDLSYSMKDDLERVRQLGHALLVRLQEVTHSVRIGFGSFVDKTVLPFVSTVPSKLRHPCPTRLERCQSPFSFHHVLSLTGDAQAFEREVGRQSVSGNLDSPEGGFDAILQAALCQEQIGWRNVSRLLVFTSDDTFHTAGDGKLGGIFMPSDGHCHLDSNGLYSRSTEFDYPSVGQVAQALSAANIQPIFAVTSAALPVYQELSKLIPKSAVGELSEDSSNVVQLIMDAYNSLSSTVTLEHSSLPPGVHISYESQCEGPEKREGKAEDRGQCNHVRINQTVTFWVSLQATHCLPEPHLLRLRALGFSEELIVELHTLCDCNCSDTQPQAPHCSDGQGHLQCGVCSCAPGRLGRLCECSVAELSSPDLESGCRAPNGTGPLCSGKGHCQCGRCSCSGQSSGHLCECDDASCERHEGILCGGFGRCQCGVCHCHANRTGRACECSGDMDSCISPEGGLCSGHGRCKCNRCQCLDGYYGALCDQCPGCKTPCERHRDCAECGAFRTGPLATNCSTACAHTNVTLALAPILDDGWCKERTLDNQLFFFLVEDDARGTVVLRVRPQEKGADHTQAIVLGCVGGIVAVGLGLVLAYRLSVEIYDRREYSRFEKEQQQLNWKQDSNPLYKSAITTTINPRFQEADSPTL
Assay type: cell-based
Description: Integrin α4β7-MAdCAM Cell Adhesion Assay
RPMI8866 cells were resuspended at 10 million cells/ml in PBS containing […] and incubated at 37° C. for 30 min in a 50 ml tube. […] The plate was emptied by inverting and blotting on paper towels and washed manually twice with PBS. 100 μl PBS was then added to each well. […] To calculate the dose response, the fluorescence value of control wells not containing cells was subtracted from each test well.

SMILES	pIC50
CC(C)C[C@@H]1NC(=O)c2ccc(-c3ccc(N4CCN(C(=O)CCCCC(=O)N5CCN(c6ccc(-c7ccc8cc7CNC(=O)[C@@H]7CCCN7[C@H](C(=O)NC(C)(C)C)[C@H](C)NC(=O)[C@H]([C@@H](C)O)NC(=O)[C@H](CC(=O)O)NC(=O)[C@H](CC(C)C)NC8=O)cc6)CC5)CC4)cc3)c(c2)CNC(=O)[C@@H]2CCCN2[C@H](C(=O)NC(C)(C)C)[C@H](C)NC(=O)[C@H]([C@@H](C)O)NC(=O)[C@H](CC(=O)O)NC1=O [Compound 486]	7.38
CC(C)C[C@@H]1NC(=O)c2ccc(-c3ccc(N4CCN(C(=O)CCOCCOCCOCCOCCOCCOCCOCCC(=O)N5CCN(c6ccc(-c7ccc8cc7CNC(=O)[C@@H]7CCCN7[C@H](C(=O)NC(C)(C)C)[C@H](C)NC(=O)[C@H]([C@@H](C)O)NC(=O)[C@H](CC(=O)O)NC(=O)[C@H](CC(C)C)NC8=O)cc6)CC5)CC4)cc3)c(c2)CNC(=O)[C@@H]2CCCN2[C@H](C(=O)NC(C)(C)C)[C@H](C)NC(=O)[C@H]([C@@H](C)O)NC(=O)[C@H](CC(=O)O)NC1=O [Compound 510]	7.06
CC(C)C[C@@H]1NC(=O)c2ccc(-c3ccc(N4CCN(C(=O)Cc5ccc(CC(=O)N6CCN(c7ccc(-c8ccc9cc8CNC(=O)[C@@H]8CCCN8[C@H](C(=O)NC(C)(C)C)[C@H](C)NC(=O)[C@H]([C@@H](C)O)NC(=O)[C@H](CC(=O)O)NC(=O)[C@H](CC(C)C)NC9=O)cc7)CC6)cc5)CC4)cc3)c(c2)CNC(=O)[C@@H]2CCCN2[C@H](C(=O)NC(C)(C)C)[C@H](C)NC(=O)[C@H]([C@@H](C)O)NC(=O)[C@H](CC(=O)O)NC1=O [Compound 516]	7.01
CC(C)C[C@@H]1NC(=O)c2ccc(-c3ccc(N4CCN(C(=O)CCCCCCC(=O)N5CCN(c6ccc(-c7ccc8cc7CNC(=O)[C@@H]7CCCN7[C@H](C(=O)NC(C)(C)C)[C@H](C)NC(=O)[C@H]([C@@H](C)O)NC(=O)[C@H](CC(=O)O)NC(=O)[C@H](CC(C)C)NC8=O)cc6)CC5)CC4)cc3)c(c2)CNC(=O)[C@@H]2CCCN2[C@H](C(=O)NC(C)(C)C)[C@H](C)NC(=O)[C@H]([C@@H](C)O)NC(=O)[C@H](CC(=O)O)NC1=O [Compound 487]	7.19
CC(C)C[C@@H]1NC(=O)c2ccc(-c3ccc(N4CCN(C(=O)[C@H]5CCCC[C@H]5C(=O)N5CCN(c6ccc(-c7ccc8cc7CNC(=O)[C@@H]7CCCN7[C@H](C(=O)NC(C)(C)C)[C@H](C)NC(=O)[C@H]([C@@H](C)O)NC(=O)[C@H](CC(=O)O)NC(=O)[C@H](CC(C)C)NC8=O)cc6)CC5)CC4)cc3)c(c2)CNC(=O)[C@@H]2CCCN2[C@H](C(=O)NC(C)(C)C)[C@H](C)NC(=O)[C@H]([C@@H](C)O)NC(=O)[C@H](CC(=O)O)NC1=O [Compound 491]	7.64
CC(C)C[C@@H]1NC(=O)[C@H]2CCCCN2C(=O)[C@H](Cc2ccc(CNC(=O)CCCCC(=O)NCc3ccc(C[C@@H]4NC(=O)[C@@H]5CCCN5[C@H](C(=O)NC(C)(C)C)[C@H](C)NC(=O)[C@H]([C@@H](C)O)NC(=O)[C@H](CC(=O)O)NC(=O)[C@H](CC(C)C)NC(=O)[C@H]5CCCCN5C4=O)cc3)cc2)NC(=O)[C@@H]2CCCN2[C@H](C(=O)NC(C)(C)C)[C@H](C)NC(=O)[C@H]([C@@H](C)O)NC(=O)[C@H](CC(=O)O)NC1=O [Compound 523]	6.36

More lines, in order of rising pIC50, values ahead:

pIC50	SMILES
7.40	CC(C)C[C@@H]1NC(=O)c2ccc(-c3ccc(N4CCN(C(=O)CCCCCCCCC(=O)N5CCN(c6ccc(-c7ccc8cc7CNC(=O)[C@@H]7CCCN7[C@H](C(=O)NC(C)(C)C)[C@H](C)NC(=O)[C@H]([C@@H](C)O)NC(=O)[C@H](CC(=O)O)NC(=O)[C@H](CC(C)C)NC8=O)cc6)CC5)CC4)cc3)c(c2)CNC(=O)[C@@H]2CCCN2[C@H](C(=O)NC(C)(C)C)[C@H](C)NC(=O)[C@H]([C@@H](C)O)NC(=O)[C@H](CC(=O)O)NC1=O [Compound 489]
7.47	CC(C)C[C@@H]1NC(=O)c2ccc(-c3ccc(N4CCN(C(=O)c5cccc(-c6ccccc6C(=O)N6CCN(c7ccc(-c8ccc9cc8CNC(=O)[C@@H]8CCCN8[C@H](C(=O)NC(C)(C)C)[C@H](C)NC(=O)[C@H]([C@@H](C)O)NC(=O)[C@H](CC(=O)O)NC(=O)[C@H](CC(C)C)NC9=O)cc7)CC6)c5)CC4)cc3)c(c2)CNC(=O)[C@@H]2CCCN2[C@H](C(=O)NC(C)(C)C)[C@H](C)NC(=O)[C@H]([C@@H](C)O)NC(=O)[C@H](CC(=O)O)NC1=O [Compound 478]
7.47	CC(C)C[C@@H]1NC(=O)c2ccc(-c3ccc(N4CCN(C(=O)CCCCCCCC(=O)N5CCN(c6ccc(-c7ccc8cc7CNC(=O)[C@@H]7CCCN7[C@H](C(=O)NC(C)(C)C)[C@H](C)NC(=O)[C@H]([C@@H](C)O)NC(=O)[C@H](CC(=O)O)NC(=O)[C@H](CC(C)C)NC8=O)cc6)CC5)CC4)cc3)c(c2)CNC(=O)[C@@H]2CCCN2[C@H](C(=O)NC(C)(C)C)[C@H](C)NC(=O)[C@H]([C@@H](C)O)NC(=O)[C@H](CC(=O)O)NC1=O [Compound 488]
7.52	CC(C)C[C@@H]1NC(=O)c2ccc(-c3ccc(N4CCN(C(=O)CC[C@@H](N)C(=O)N5CCN(c6ccc(-c7ccc8cc7CNC(=O)[C@@H]7CCCN7[C@H](C(=O)NC(C)(C)C)[C@H](C)NC(=O)[C@H]([C@@H](C)O)NC(=O)[C@H](CC(=O)O)NC(=O)[C@H](CC(C)C)NC8=O)cc6)CC5)CC4)cc3)c(c2)CNC(=O)[C@@H]2CCCN2[C@H](C(=O)NC(C)(C)C)[C@H](C)NC(=O)[C@H]([C@@H](C)O)NC(=O)[C@H](CC(=O)O)NC1=O [Compound 495]
7.52	CC(C)C[C@@H]1NC(=O)c2ccc(-c3ccc(N4CCN(C(=O)CCCC(=O)N5CCN(c6ccc(-c7ccc8cc7CNC(=O)[C@@H]7CCCN7[C@H](C(=O)NC(C)(C)C)[C@H](C)NC(=O)[C@H]([C@@H](C)O)NC(=O)[C@H](CC(=O)O)NC(=O)[C@H](CC(C)C)NC8=O)cc6)CC5)CC4)cc3)c(c2)CNC(=O)[C@@H]2CCCN2[C@H](C(=O)NC(C)(C)C)[C@H](C)NC(=O)[C@H]([C@@H](C)O)NC(=O)[C@H](CC(=O)O)NC1=O [Compound 485]
7.60	CC(C)C[C@@H]1NC(=O)c2ccc(-c3ccc(N4CCN(C(=O)c5cccc(C(=O)N6CCN(c7ccc(-c8ccc9cc8CNC(=O)[C@@H]8CCCN8[C@H](C(=O)NC(C)(C)C)[C@H](C)NC(=O)[C@H]([C@@H](C)O)NC(=O)[C@H](CC(=O)O)NC(=O)[C@H](CC(C)C)NC9=O)cc7)CC6)c5)CC4)cc3)c(c2)CNC(=O)[C@@H]2CCCN2[C@H](C(=O)NC(C)(C)C)[C@H](C)NC(=O)[C@H]([C@@H](C)O)NC(=O)[C@H](CC(=O)O)NC1=O [Compound 497]
